The results in this text go back to ChEMBL document CHEMBL1141509, “Development of pyridopyrimidines as potent Akt1/2 inhibitors” (Bioorg Med Chem Lett, 2008).

Bounds are passed on as bounds.

Assay [1] concerns the target T1, RAC-beta serine/threonine-protein kinase (Homo sapiens, UniProt P31751). Briefly: Inhibition of Akt2.
Assay [2] deals with T2, RAC-alpha serine/threonine-protein kinase (Homo sapiens, UniProt P31749). Briefly: Inhibition of Akt1.
Assay [3] has as its target T1, RAC-beta serine/threonine-protein kinase. As to the kind of experiment: Inhibition of Akt2 in human C33A cells by immunoprecipitation kinase assay. The class given is cell-based, C-33-A.
In assay [4] the target is T2, RAC-alpha serine/threonine-protein kinase. As to the kind of experiment: Inhibition of human Akt1 in human C33A cells by immunoprecipitation kinase assay. It counts as cell-based, C-33-A.
Assay [5] addresses RAC-gamma serine/threonine-protein kinase (Homo sapiens, UniProt Q9Y243). As to the kind of experiment: Inhibition of Akt3.
Assay [6] is described as follows: Inhibition of PKC.
In assay [7] the target is T3, Serine/threonine-protein kinase Sgk1 (Homo sapiens, UniProt O00141).
T3 sequence (O00141 whole entry): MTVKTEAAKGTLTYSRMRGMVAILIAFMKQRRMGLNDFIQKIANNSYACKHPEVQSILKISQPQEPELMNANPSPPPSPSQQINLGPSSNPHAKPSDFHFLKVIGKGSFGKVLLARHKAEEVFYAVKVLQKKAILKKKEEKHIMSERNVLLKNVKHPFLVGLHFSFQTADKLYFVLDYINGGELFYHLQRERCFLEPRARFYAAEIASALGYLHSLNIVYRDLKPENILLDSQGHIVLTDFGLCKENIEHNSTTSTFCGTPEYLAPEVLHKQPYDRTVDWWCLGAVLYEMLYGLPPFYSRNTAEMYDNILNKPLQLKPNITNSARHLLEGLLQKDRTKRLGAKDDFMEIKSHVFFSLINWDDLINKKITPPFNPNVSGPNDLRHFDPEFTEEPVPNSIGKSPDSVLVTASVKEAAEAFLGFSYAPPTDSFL
Briefly: Inhibition of SGK.

Assay [8] can be described thus: Inhibition of PKA.

T1 sequence (P31751 whole entry): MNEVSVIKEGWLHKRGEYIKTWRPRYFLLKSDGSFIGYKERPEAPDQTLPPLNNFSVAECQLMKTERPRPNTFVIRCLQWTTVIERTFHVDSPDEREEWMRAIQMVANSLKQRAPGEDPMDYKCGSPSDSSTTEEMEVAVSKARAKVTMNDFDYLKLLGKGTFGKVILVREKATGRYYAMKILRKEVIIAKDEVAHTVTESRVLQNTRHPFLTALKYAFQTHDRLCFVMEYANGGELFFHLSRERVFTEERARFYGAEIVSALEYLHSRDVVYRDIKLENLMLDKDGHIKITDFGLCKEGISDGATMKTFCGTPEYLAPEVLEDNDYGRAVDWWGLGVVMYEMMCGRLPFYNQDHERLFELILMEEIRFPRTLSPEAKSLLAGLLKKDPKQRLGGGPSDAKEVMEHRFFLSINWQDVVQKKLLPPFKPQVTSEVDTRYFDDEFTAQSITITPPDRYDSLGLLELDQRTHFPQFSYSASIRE
T2 sequence (P31749 whole entry): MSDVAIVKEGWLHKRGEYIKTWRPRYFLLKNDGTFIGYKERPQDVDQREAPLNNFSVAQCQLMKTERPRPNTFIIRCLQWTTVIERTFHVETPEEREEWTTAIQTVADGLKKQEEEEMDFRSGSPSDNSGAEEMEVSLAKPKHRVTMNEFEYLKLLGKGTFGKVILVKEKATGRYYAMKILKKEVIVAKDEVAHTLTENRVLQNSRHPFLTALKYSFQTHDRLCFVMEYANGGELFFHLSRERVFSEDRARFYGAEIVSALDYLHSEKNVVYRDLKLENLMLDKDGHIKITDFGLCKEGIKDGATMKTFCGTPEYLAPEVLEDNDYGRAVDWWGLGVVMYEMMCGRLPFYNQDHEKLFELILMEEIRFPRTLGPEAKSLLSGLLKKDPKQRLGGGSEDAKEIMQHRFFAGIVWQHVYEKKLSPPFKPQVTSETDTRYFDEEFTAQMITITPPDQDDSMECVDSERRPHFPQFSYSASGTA
RAC-gamma serine/threonine-protein kinase, sequence (Q9Y243 whole entry): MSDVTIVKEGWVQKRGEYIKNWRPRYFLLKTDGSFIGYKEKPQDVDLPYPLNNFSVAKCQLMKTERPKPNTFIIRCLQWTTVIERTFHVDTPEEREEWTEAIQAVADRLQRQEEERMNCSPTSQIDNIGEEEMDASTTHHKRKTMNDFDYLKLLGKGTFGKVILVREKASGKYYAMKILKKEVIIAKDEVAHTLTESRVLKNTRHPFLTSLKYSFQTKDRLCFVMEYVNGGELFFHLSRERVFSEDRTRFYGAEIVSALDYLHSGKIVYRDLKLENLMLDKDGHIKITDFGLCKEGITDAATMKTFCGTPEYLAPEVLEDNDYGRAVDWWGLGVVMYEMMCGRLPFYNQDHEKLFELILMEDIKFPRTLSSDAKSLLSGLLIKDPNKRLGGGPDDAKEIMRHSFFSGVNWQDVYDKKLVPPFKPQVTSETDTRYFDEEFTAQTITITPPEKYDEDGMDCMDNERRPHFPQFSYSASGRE

By IC50 is commonly meant the concentration at which inhibition is half-maximal. A high value points to a need for much substance. In the case of `CSc1ncc2cc(-c3ccccc3)c(-c3ccc(CNCCc4nc[nH]n4)cc3)nc2n1`, the results for the half-inhibitory concentration (IC50) in assay [1] and in assay [2] were 1710 nM and 139 nM, respectively.
In the case of `N#Cc1ncc2cc(-c3ccccc3)c(-c3ccc(CN4CCC(c5nnc(-c6ccccn6)[nH]5)CC4)cc3)nc2n1`, the 50% inhibitory concentration (IC50) was found to be 586 nM in assay [3], 59 nM in assay [1], 100 nM in assay [4] and 24 nM in assay [2].
For `CSc1ncc2cc(-c3ccccc3)c(-c3ccc(CN4CCC(C(N)=O)CC4)cc3)nc2n1`, the IC50 in assay [3] came to 9260 nM; in assay [1] it was 928 nM; in assay [4], 560 nM; in assay [2], 29 nM.
Consider `Nc1ncnc2nc(-c3ccc(CN4CCC(c5nc6ccc(F)cc6[nH]5)CC4)cc3)c(-c3ccccc3)cc12`, for which the figures for the IC50 in assay [3] and in assay [1] were 1810 nM and 239 nM, respectively.
Turning to `CCNC(=O)NC1CCN(Cc2ccc(-c3nc4nc(SC)ncc4cc3-c3ccccc3)cc2)CC1`, the IC50 in assay [3] is 5300 nM; in assay [1], 1910 nM; in assay [4], 795 nM; in assay [2], 81 nM.
On to `CSc1ncc2cc(-c3ccccc3)c(-c3ccc(CN4CCC(C(=O)Nc5ccncc5)CC4)cc3)nc2n1`, for which the IC50 in assay [3] came out at 1130 nM; in assay [1], 301 nM; in assay [4], 133 nM; in assay [2] it was 9.7 nM.
On to `NC(=O)c1ncc2cc(-c3ccccc3)c(-c3ccc(CN4CCC(c5nnc(-c6ccccn6)[nH]5)CC4)cc3)nc2n1`, for which the IC50 in assay [3] came to 3710 nM; in assay [1], 35 nM; in assay [4], 96.4 nM; in assay [2] it was 6.2 nM.
`CSc1ncc2cc(-c3ccccc3)c(-c3ccc(CN4CCC(c5nnc(-c6ccccn6)[nH]5)CC4)cc3)nc2n1`: the IC50 in assay [3] worked out at 589 nM; in assay [1], 26 nM; in assay [4], 9.3 nM; in assay [2] it was 3.8 nM.
With `CSc1ncc2cc(-c3ccccc3)c(-c3ccc(CN4CCC(C(=O)NCCC(N)=O)CC4)cc3)nc2n1`, the IC50 in assay [1] came to 2110 nM; in assay [2], 91 nM.
Take `CSc1ncc2cc(-c3ccccc3)c(-c3ccc(CNCCCn4ccnc4)cc3)nc2n1`: the IC50 turned out to be 1510 nM in assay [1] and 137 nM in assay [2].
Turning to `CSc1ncc2cc(-c3ccccc3)c(-c3ccc(CN(C)CCc4cn[nH]c4)cc3)nc2n1`, the figures for the concentration for half-maximal inhibition (IC50) in assay [1] and in assay [2] were 17500 nM and 1520 nM, respectively.
For `Nc1ncnc2nc(-c3ccc(CN4CCC(n5ncc6c(N)ncnc65)CC4)cc3)c(-c3ccccc3)cc12`, the IC50 in assay [3] was 468 nM; in assay [1] it was 99 nM; in assay [4], 295 nM; in assay [2], 14 nM.
On to `CSc1ncc2cc(-c3ccccc3)c(-c3ccc(CNCCc4c[nH]cn4)cc3)nc2n1`, for which the IC50 came to 1240 nM in assay [1] and 99 nM in assay [2].
As to `CSc1ncc2cc(-c3ccccc3)c(-c3ccc(CNCCC(=O)c4ccccc4N)cc3)nc2n1`, the IC50 in assay [1] is 90 nM; in assay [2], 15 nM.
With `CSc1ncc2cc(-c3ccccc3)c(-c3ccc(CNCCc4nnc(N)s4)cc3)nc2n1`, the concentration for half-maximal inhibition (IC50) in assay [1] was determined as 529 nM; in assay [2], 46 nM.
In the case of `CSc1ncc2cc(-c3ccccc3)c(-c3ccc(CNCCc4cccnc4)cc3)nc2n1`, the results for the half-maximal inhibitory concentration (IC50) in assay [1] and in assay [2] were 1160 nM and 90 nM, respectively.
The like results for `CSc1ncc2cc(-c3ccccc3)c(-c3ccc(CNCCC(N)=O)cc3)nc2n1` were, in that order, 1300 nM and 226 nM.
As for `CSc1ncc2cc(-c3ccccc3)c(-c3ccc(CNCCc4nnc(-c5ccccc5)[nH]4)cc3)nc2n1`, the IC50 was found to be 494 nM in assay [1] and 63 nM in assay [2].
For `CSc1ncc2cc(-c3ccccc3)c(-c3ccc(CN4CCC(c5nc(-c6cccnc6)no5)CC4)cc3)nc2n1`, the IC50 in assay [1] is 1300 nM; in assay [2], 64 nM.
With `CNc1ncc2cc(-c3ccccc3)c(-c3ccc(CN4CCC(c5nnc(-c6ccccn6)[nH]5)CC4)cc3)nc2n1`, the IC50 was 2470 nM in assay [5]; more than 50000 nM in assay [6]; 899 nM in assay [3]; more than 50000 nM in assay [7]; 94.4 nM in assay [1]; 20.3 nM in assay [4]. The IC50 was more than 50000 nM in assay [8] and 6 nM in assay [2].
On to `CSc1ncc2cc(-c3ccccc3)c(-c3ccc(CNCCc4nnc(C)[nH]4)cc3)nc2n1`, for which the IC50 in assay [1] was found to be 1790 nM; in assay [2] it was 162 nM.
As for `CSc1ncc2cc(-c3ccccc3)c(-c3ccc(CNCCCN4CCN(C)CC4)cc3)nc2n1`, the IC50 in assay [1] amounted to 8920 nM; in assay [2] it was 765 nM.
Consider `CSc1ncc2cc(-c3ccccc3)c(-c3ccc(CN4CCC(n5ncc6c(N)ncnc65)CC4)cc3)nc2n1`, for which the IC50 in assay [3] was determined as 828 nM; in assay [1], 44 nM; in assay [4], 60 nM; in assay [2], 4 nM.
Take `CSc1ncc2cc(-c3ccccc3)c(-c3ccc(CN4CCC(c5nnc(N)s5)CC4)cc3)nc2n1`: the IC50 is 1570 nM in assay [3], 267 nM in assay [1], 79 nM in assay [4] and 8.5 nM in assay [2].
For the compound `CSc1ncc2cc(-c3ccccc3)c(-c3ccc(CNCCc4nccs4)cc3)nc2n1`, the IC50 in assay [1] came out at 1380 nM; in assay [2], 198 nM.
Regarding `CSc1ncc2cc(-c3ccccc3)c(-c3ccc(CN4CCC(NC(=O)CNC(C)=O)CC4)cc3)nc2n1`, the half-inhibitory concentration (IC50) in assay [1] was 5130 nM; in assay [2] it was 286 nM.
Take `CSc1ncc2cc(-c3ccccc3)c(-c3ccc(CN4CCC(c5cc(-c6ccncc6)[nH]n5)CC4)cc3)nc2n1`: the IC50 was 635 nM in assay [3], 57 nM in assay [1], 85 nM in assay [4] and 4.5 nM in assay [2].
As for `COc1ncc2cc(-c3ccccc3)c(-c3ccc(CN4CCC(c5nnc(-c6ccccn6)[nH]5)CC4)cc3)nc2n1`, the concentration for half-maximal inhibition (IC50) was found to be 2300 nM in assay [3], 107 nM in assay [1], 42.6 nM in assay [4] and 23.6 nM in assay [2].
